Consider 3 molecules from patent publication US20040054010A1, “Endosulfan formulation and methods of use thereof” (priority 2000, published 2004).

Counter-ions that a name gives are not always drawn. Like-named read-outs stand apart in the source and are kept apart here.

In data set [1] the test system is GABA-gated chloride channel. The note with it: Abalis et al., 1985, 1986; Gant et al., 1987; cited from earlier work.
For data set [2], the system named is Musca domestica (house fly). The note with it: topical application in acetone, cited from earlier work.
The test system of data set [3] is Rats. Put plainly: Acute toxicity after ingestion by rats. It is filed as in vivo. The note with it: rats and mice (Table 1). From the text: A comparison of the acute toxicity of the isomers and the metabolite endosulfan sulfate after ingestion by rats and mice is shown in Table 1. […] Most studies investigating the chronic toxicity of endosulfan in mammals have not differentiated between the isomers. An exception is the neurotoxic action of endosulfan that has been attributed to the alpha-isomer.

In data set [4] the test system is Helicoverpa zea. To be noted: topical application in acetone; Walfenbarger and Guerra, 1972; cited from earlier work.
Data set [5] concerns Heliothis virescens. To be noted: topical application in acetone; Walfenbarger and Guerra, 1972; cited from earlier work.
In data set [6] the test system is Rats. To be noted: ingestion, Goebel et al., 1982; cited from earlier work.
Data set [7] has as its system Mice. The note with it: ingestion, Dorough et al., 1978; cited from earlier work.
The conditions of data set [8]: Singh et al., 1991, cited from earlier work.

For `O=S1OC[C@@H]2[C@H](CO1)[C@@]1(Cl)C(Cl)=C(Cl)[C@]2(Cl)C1(Cl)Cl` (stereo partly drawn) [alpha-endosulfan], in data set [1], the “potency at inhibiting GABA-induced chloride flux relative to the beta-isomer” value is given as “much more potent”. Besides, the LD50 in data set [2] (Barnes and Ware, 1965) was 5.5 µg/g; in data set [2] (Lindquist and Dahm, 1957) it was 0.14 μg · fly^−1; in data set [4], 630 µg/g; in data set [5], “high*”; in data set [6], 76 mg/kg; in data set [7], 11 mg/kg. In data set [3], the “acute toxicity relative to the beta-isomer” value was “approximately four fold higher”.

For `O=S1OC[C@@H]2[C@H](CO1)[C@]1(Cl)C(Cl)=C(Cl)[C@]2(Cl)C1(Cl)Cl` (stereo partly drawn) [beta-endosulfan], the “susceptibility to photolysis relative to the alpha-isomer” value in data set [8] was “over twice as susceptible”. Moreover, the “vulnerability to chemical hydrolysis relative to the alpha-isomer” value in data set [8] (neutral and alkali pH) was “approximately 25%”. The LD50 was 9.0 µg/g in data set [2] (Barnes and Ware, 1965); 0.19 μg · fly^−1 in data set [2] (Lindquist and Dahm, 1957); 4140 µg/g in data set [4]; 4960 µg/g in data set [5]; 240 mg/kg in data set [6]; 36 mg/kg in data set [7].

Turning to `O=S1(=O)OCC2C(CO1)C1(Cl)C(Cl)=C(Cl)C2(Cl)C1(Cl)Cl` (stereo not shown) [endosulfan sulfate], the LD50 in data set [2] (Barnes and Ware, 1965) is 9.5 µg/g; in data set [4] it was 820 µg/g; in data set [5], “high*”; in data set [6] it was 76 mg/kg; in data set [7], 8 mg/kg. Also, the “acute toxicity relative to the beta-isomer” value in data set [3] is given as “approximately four fold higher”.
